System: acidiscabies and caviscabies
Experiment: Geldanamycin activity against other common scab causing species
Assay type: cell-based
Settings: data not shown

Question: How did the “activity against other common scab causing bacterial species” value turn out when COC1=C2C[C@@H](C)C[C@H](OC)[C@H](O)[C@@H](C)/C=C(\C)[C@H](OC(N)=O)[C@@H](OC)/C=C\C=C(/C)C(=O)NC(=CC1=O)C2=O [Geldanamycin] was run?
Answer: active
